Experimental data reported in patent publication US20090324691A1, “METHODS AND OPHTHALMIC DEVICES USED IN THE TREATMENT OF OCULAR ALLERGIES” (priority 2008, published 2009).
Where a name gives a salt, the structure may show the parent alone.

Columns and labels:
[1] = Uptake of ketotifen fumarate to an ophthalmic device over time (FIG. 1); format: physicochemical; details: 3.0 mL of 43 ug/mL ketotifen fumarate packing solution per lens
Description: FIG. 1 illustrates the uptake of ketotifen fumarate to an ophthalmic device over time.
Three lots of 1-Day Acuvue® Brand Contact Lenses (etafilcon A) were cured and hydrated with deionized water. These lenses were inserted into glass vials containing 3.0 mL of a 43 ug/mL ketotifen fumarate packing solution per lens (packing solution formulation: borate buffered saline containing 0.83% sodium chloride, 0.9% boric acid, 100 ug/mL of dicalcium DTPA, and 0.1% sodium borate decahydrate ). The soaked and harvested at 5, 15, 30, 90 and 180 minutes and extracted and assayed as in Example 1 to determine the amount of ketotifen per treated lens. This graph illustrates that a minimum effective amount of in an etafilcon A contact lens is attained within 15 minutes of treatment.

[2] = concentrations higher than 0.025% (0.25 mg/mL), topical solution; cited from earlier work

- time of treatment to attain a minimum effective amount in an etafilcon A contact lens [1]: ≤ 15 min
SMILES: CN1CCC(=C2c3ccccc3CC(=O)c3sccc32)CC1 [ketotifen fumarate]
- ocular tolerability of higher concentrations [2]: sting and burn upon initial administration to the eye
